Test results from publication PMC2358886, “Evolution of pharmacologic specificity in the pregnane X receptor” (BMC Evolutionary Biology, 2008).
Entries after “also recorded” stand apart in the source; their conditions may differ. Like-named read-outs stand apart in the source and are kept apart here.

Key:
Ciona VDR/PXR = experiment: Activation of Ciona VDR/PXR (LBD/GAL4 chimeric receptor) luciferase reporter assay; type: cell-based, Ciona intestinalis; settings: screening; reference maximal activator 20 μM 6-formylindolo-[3,2-b]carbazole
Description: The LBD of Ciona VDR/PXR was cloned from cDNA fragments generously provided by Professors Yuji Kohara and Norituki Satoh, and then inserted into the PM2-GAL4 plasmid to create an LBD/GAL4 chimeric receptor.
The LBD of Xenopus tropicalis (Western clawed frog) PXR (xtPXR) was cloned by PCR from RNA extracted from ovary of an adult female frog. Ciona VDR/PXR was cloned from cDNA fragments ciem829d05 and cilv048e18 provided by Professor Yuji Kohara (Center for Genetic Resource Information, National Institute of Genetics, Research Organization of Information and Systems, Mishima, Japan) and Professor Noriyuki Satoh (Kyoto University, Kyoto, Japan), with analysis of the cDNA clones supported by Grant-in-aid for Scientific Research on Priority Area "Genome" of Ministry of Education, Culture, Sports, Science and Technology, Japan.
The creation of a HepG2 (human liver) cell line stably expressing the human Na^+-taurocholate cotransporter (NTCP) has been previously reported. HepG2-NTCP cells were grown in modified Eagle's medium-α containing 10% fetal bovine serum and 1% penicillin/streptomycin (Invitrogen, Carlsbad, CA, USA). Plasmids containing cDNAs for 8 PXRs from 7 species (human, mouse, rat, rabbit, chicken [also called chicken X receptor, CXR], African clawed frog [also termed Xenopus laevis benzoate X receptors α and β, BXRα and BXRβ ], zebrafish), as well as the reporter constructs tk-UAS-Luc and CYP3A4-PXRE-Luc, and 'empty' vectors pCDNA, PsG5, and PM2 were generously provided by SA Kliewer, JT Moore, and LB Moore (GlaxoSmithKline, Research Triangle Park, NC, USA). […] For the full-length expression vectors, the reporter plasmid was CYP3A4-PXRE-Luc, a construct that contains a promoter element from CYP3A4 (recognized by PXR DBDs) driving luciferase expression. For the GAL4/LBD expression constructs, the reporter plasmid was tk-UAS-Luc, which contains GAL4 DNA binding elements driving luciferase expression. The following transfection ratios of reporter, receptor, and β-galactosidase plasmids were used (ng/well): human, mouse, rabbit, and rat PXRs – 25/2.7/20; chicken PXR – 10/1/20; Xenopus tropicalis PXR, zebrafish PXR, and Ciona VDR/PXR – 75/50/20.
The PXR activation assay was a luciferase-based reporter assay. On day 1, 30,000 cells/well were seeded onto 96-well white opaque plates (Corning-Costar, Corning, NY, USA). On day 2, cells were transfected using the calcium phosphate precipitation method with expression vector or 'empty' control vector and luciferase reporter plasmid. On day 3, the cells were washed and then incubated with medium containing charcoal-dextran treated fetal bovine serum (Hyclone, Logan, UT, USA) and drugs or vehicle. On day 4, the cells were washed and the medium replaced with serum-free medium. […]

mouse PXR [1] = target: T1, mouse PXR (Mus musculus, UniProt O54915); experiment: cell-based
T1 sequence (O54915 1-431): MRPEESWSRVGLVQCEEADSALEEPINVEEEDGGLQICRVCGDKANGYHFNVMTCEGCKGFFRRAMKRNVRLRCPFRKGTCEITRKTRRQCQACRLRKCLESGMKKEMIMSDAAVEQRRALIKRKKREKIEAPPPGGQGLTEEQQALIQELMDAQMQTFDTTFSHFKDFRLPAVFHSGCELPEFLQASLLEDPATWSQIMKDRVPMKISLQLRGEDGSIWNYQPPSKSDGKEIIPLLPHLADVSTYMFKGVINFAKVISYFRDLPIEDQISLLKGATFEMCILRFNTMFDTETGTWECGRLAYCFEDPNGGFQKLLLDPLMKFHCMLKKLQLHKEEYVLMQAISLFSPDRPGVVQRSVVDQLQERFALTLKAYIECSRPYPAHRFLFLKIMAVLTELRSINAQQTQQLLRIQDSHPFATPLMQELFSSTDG

rat PXR [2] = target: T2, rat PXR (Rattus norvegicus, UniProt Q9R1A7); settings: for Rat PXR efficacy, ε: relative to 20 μM pregnenolone 16α-carbonitrile, assigned an efficacy of 1.0
T2 sequence (Q9R1A7 1-431): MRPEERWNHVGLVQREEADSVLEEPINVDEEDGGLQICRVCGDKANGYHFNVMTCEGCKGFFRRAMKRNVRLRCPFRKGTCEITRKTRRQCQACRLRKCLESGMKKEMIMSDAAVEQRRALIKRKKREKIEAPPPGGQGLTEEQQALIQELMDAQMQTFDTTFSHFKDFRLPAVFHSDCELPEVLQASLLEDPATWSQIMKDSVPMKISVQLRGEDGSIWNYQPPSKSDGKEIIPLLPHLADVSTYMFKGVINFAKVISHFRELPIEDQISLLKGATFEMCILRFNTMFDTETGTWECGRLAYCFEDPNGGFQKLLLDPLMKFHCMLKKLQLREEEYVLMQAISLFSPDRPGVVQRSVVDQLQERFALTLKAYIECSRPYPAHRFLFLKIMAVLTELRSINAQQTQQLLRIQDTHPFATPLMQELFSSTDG

chicken PXR [3] = target: T3, chicken PXR (Gallus gallus, UniProt Q9DFH3)
T3 sequence (Q9DFH3 1-391): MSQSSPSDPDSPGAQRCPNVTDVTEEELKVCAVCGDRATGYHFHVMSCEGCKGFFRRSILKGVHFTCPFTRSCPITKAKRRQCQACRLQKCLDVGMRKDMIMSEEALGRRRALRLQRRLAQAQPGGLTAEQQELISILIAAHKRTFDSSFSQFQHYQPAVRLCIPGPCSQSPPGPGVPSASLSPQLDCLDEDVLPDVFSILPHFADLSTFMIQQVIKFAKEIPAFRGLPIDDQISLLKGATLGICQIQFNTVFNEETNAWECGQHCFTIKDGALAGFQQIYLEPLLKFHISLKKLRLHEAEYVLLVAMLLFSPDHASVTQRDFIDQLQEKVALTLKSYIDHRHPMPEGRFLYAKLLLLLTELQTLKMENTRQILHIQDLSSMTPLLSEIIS

rabbit PXR = target: T4, rabbit PXR (Oryctolagus cuniculus, UniProt Q9TU02); experiment: PXR activation luciferase reporter assay, rabbit PXR; settings: for Rabbit PXR efficacy, ε: relative to 50 μM 5α-pregnan-3,20-dione, assigned an efficacy of 1.0
T4 sequence (Q9TU02 1-411): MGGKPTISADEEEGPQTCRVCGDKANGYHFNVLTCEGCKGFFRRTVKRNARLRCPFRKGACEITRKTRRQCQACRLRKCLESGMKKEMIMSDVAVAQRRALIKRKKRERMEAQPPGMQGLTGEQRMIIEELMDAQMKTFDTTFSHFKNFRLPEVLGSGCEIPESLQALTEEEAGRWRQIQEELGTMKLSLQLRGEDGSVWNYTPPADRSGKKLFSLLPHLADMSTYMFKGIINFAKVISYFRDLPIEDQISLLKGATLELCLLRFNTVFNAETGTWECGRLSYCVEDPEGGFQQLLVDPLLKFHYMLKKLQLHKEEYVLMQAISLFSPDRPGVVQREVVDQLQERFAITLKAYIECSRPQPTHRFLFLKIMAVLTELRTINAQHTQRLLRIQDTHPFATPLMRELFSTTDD

mouse PXR [4] = target: T1, mouse PXR
rat PXR [5] = target: T2, rat PXR; experiment: cell-based
chicken PXR [6] = target: T3, chicken PXR; experiment: cell-based
HepG2 cells [7] = test system: HepG2 cells
human PXR [8] = target: T5, human PXR (Homo sapiens, UniProt O75469)
T5 sequence (O75469 1-434): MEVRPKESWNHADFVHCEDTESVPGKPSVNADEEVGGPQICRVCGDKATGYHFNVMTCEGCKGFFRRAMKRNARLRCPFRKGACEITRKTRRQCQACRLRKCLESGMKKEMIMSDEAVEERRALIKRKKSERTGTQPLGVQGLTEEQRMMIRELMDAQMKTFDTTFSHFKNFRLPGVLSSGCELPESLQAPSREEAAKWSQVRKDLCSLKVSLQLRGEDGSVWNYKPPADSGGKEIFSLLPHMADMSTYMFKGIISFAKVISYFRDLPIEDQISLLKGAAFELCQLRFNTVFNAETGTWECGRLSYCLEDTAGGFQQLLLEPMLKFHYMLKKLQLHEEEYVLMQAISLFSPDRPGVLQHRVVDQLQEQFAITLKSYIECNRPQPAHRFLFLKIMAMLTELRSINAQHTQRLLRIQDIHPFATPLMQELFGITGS

zebrafish PXR [9] = target: T6, zebrafish PXR (Danio rerio, UniProt A5WYG8)
T6 sequence (A5WYG8 144-430): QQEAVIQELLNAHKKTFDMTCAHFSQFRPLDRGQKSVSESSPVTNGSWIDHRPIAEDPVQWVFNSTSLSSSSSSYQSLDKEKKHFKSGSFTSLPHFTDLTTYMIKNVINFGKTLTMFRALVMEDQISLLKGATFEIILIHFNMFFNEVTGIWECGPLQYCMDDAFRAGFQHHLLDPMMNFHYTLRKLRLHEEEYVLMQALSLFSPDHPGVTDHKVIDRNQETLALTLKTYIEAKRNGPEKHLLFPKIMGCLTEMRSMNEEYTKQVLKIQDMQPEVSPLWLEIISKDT

zebrafish PXR [10] = target: T6, zebrafish PXR; experiment: cell-based
human PXR [11] = target: T5, human PXR; experiment: PXR activation luciferase reporter assay, human PXR in HepG2-NTCP cells
HepG2 cells [12] = experiment: Toxicity assays in HepG2 cells (MTT and alamar blue reduction); settings: lowest concentration that produced significant toxicity in the HepG2 cells
[13] = -log(EC50), EC50 in molar units
[14] = relative to 20 μM pregnenolone 16α-carbonitrile, assigned an efficacy of 1.0
[15] = hPXR Activity, -log(EC50), EC50 in molar units, activation of human PXR

6-formylindolo-[3,2-b]carbazole
Activation of Ciona VDR/PXR (in words) (Ciona VDR/PXR): low micromolar range; also recorded: robustly activated

C[C@H](CCC(=O)NCCS(=O)(=O)O)[C@H]1CC[C@H]2[C@@H]3[C@H](O)C[C@@H]4C[C@H](O)CC[C@]4(C)[C@H]3C[C@H](O)[C@]12C [BI022, Taurocholic acid]
EC50 (mouse PXR [1]): 85.1 µM | Rat PXR Activity (rat PXR [2]; [13]): No effect | Chicken PXR Activity (chicken PXR [3]): No effect

CC(C)CCC[C@@H](C)[C@H]1CC[C@H]2[C@@H]3[C@H](O)C[C@@H]4C[C@H](O)CC[C@]4(C)[C@H]3C[C@H](O)[C@]12C [BI023, 5β-Cholestan-3α,7α,12α-triol]
EC50 (mouse PXR [1]): 1.41 µM | EC50 (rabbit PXR): 3.89 µM | Rabbit PXR efficacy, ε (rabbit PXR): 0.37 | Mouse PXR efficacy, ε (mouse PXR [4]; [14]): 1.23 | EC50 (rat PXR [5]): 2.24 µM | Rat PXR efficacy, ε (rat PXR [2]): 0.72 | Chicken PXR efficacy, ε (chicken PXR [3]; chicken): 0.27 | EC50 (chicken PXR [6]): 1.29 µM

CC(CCCC(CO)COS(=O)(=O)O)[C@H]1CCC2C3C(C[C@H](O)[C@@]21C)[C@@]1(C)CC[C@@H](O)C[C@@H]1C[C@H]3O (stereo partly drawn) [BI036, 5β-Cholestan-3α,7α,12α,26-tetrol-27-sulfate]
EC50 (mouse PXR [1]): 16.6 µM | EC50 (rabbit PXR): 81.3 µM | Rabbit PXR efficacy, ε (rabbit PXR): 0.43 | Mouse PXR efficacy, ε (mouse PXR [4]; [14]): 0.29 | Toxicity (HepG2 cells [7]): None | Activation of human PXR (in words) (human PXR [8]): activated | EC50 (rat PXR [5]): 31.6 µM | Rat PXR efficacy, ε (rat PXR [2]): 0.28 | Activation of zebrafish PXR (in words) (zebrafish PXR [9]; bile salts): activated | zfPXR Efficacy (zebrafish PXR [9]; zebrafish): 0.75 | Chicken PXR efficacy, ε (chicken PXR [3]; chicken): 0.61 | EC50 (zebrafish PXR [10]): 43.7 µM | EC50 (human PXR [11]; [15]): 25.7 µM | EC50 (chicken PXR [6]): 30.9 µM

NC(=O)N1c2ccccc2C=Cc2ccccc21 [MI7, Carbamazepine]
Toxicity (HepG2 cells [7]; human, 24 hr): 200 µM | Activation of Ciona VDR/PXR (in words) (Ciona VDR/PXR): micromolar range; also recorded: Weaker activation | zfPXR Activity (zebrafish PXR [9]): None | EC50 (human PXR [11]; [15]): 63.1 µM

Clc1cc2c(cc1Cl)Oc1cc(Cl)c(Cl)cc1O2 [MI34, 2,3,7,8-tetrachlorodibenzo-p-dioxin]
Toxicity (HepG2 cells [12]): 10 µM | EC50 (mouse PXR [1]): 0.1 µM | Activation of rabbit PXR (in words) (rabbit PXR): inactive | Rabbit PXR Activity (rabbit PXR; [13]): No effect | Mouse PXR efficacy, ε (mouse PXR [4]; [14]): 1.60 | EC50 (rat PXR [5]): 0.2 µM | Rat PXR efficacy, ε (rat PXR [2]): 0.83 | zfPXR Efficacy (zebrafish PXR [9]; relative to 20 μM 5α-androstan-3α-ol, assigned an efficacy of 1.0): 6.17 | Chicken PXR efficacy, ε (chicken PXR [3]; relative to 20 μM nifedipine, assigned an efficacy of 1.0): 0.06 | EC50 (zebrafish PXR [10]; zfPXR Activity, -log(EC50), EC50 in molar units, activation of zebrafish PXR): 0.479 µM | EC50 (human PXR [11]): 0.0676 µM | hPXR Efficacy (human PXR [11]; relative to 10 μM rifampicin, assigned an efficacy of 1.0): 1.78 | EC50 (chicken PXR [6]): 0.0912 µM

CC(=O)[C@H]1CC[C@H]2[C@@H]3CC[C@@H]4CC(=O)CC[C@]4(C)[C@H]3CC[C@]12C [PR2, 5β-Pregnan-3,20-dione]
EC50 (mouse PXR [1]): 4.37 µM | EC50 (rabbit PXR): 12.6 µM | Mouse PXR efficacy, ε (mouse PXR [4]; mouse): 5.36 (ε = 0.84) | Toxicity (HepG2 cells [7]): None | hPXR Efficacy (human PXR [8]; human): 0.97 | EC50 (rat PXR [5]): 5.75 µM | zfPXR Efficacy (zebrafish PXR [9]; zebrafish): 0.85 | Chicken PXR efficacy, ε (chicken PXR [3]; chicken): 5.59 (ε = 0.81) | EC50 (zebrafish PXR [10]): 0.832 µM | EC50 (human PXR [11]; hPXR Activity): 2.57 µM | EC50 (chicken PXR [6]): 2.57 µM
